# Test results as given in ChEMBL document CHEMBL2062379, “Cleavage mechanism and anti-tumor activity of 3,6-epidioxy-1,10-bisaboladiene isolated from edible wild plants” (Bioorg Med Chem, 2012).
# pIC50: −log10 of the molar value. Active and inactive are the calls of the source. The rule behind the calls is not given here.
# Tests used:
# MCF7 = assay: Growth inhibition of human MCF7 cells; type: functional
# MDA-MB-231 = assay: Growth inhibition of human MDA-MB-231 cells; type: functional
# U-251 = assay: Growth inhibition of human U251 cells; type: functional
# SF-268 = assay: Growth inhibition of human SF268 cells; type: functional
# SF-295 = assay: Growth inhibition of human SF295 cells; type: functional
# SF-539 = assay: Growth inhibition of human SF539 cells; type: functional
# SNB-75 = assay: Growth inhibition of human SNB75 cells; type: functional
# HCC 2998 = assay: Growth inhibition of human HCC2998 cells; type: functional
# KM12 = assay: Growth inhibition of human KM12 cells; type: functional
# HT-29 = assay: Growth inhibition of human HT-29 cells; type: functional
# HCT-116 = assay: Growth inhibition of human HCT116 cells; type: functional
# NCI-H23 = assay: Growth inhibition of human NCI-H23 cells; type: functional
# NCI-H226 = assay: Growth inhibition of human NCI-H226 cells; type: functional
# NCI-H522 = assay: Growth inhibition of human NCI-H522 cells; type: functional
# NCI-H460 = assay: Growth inhibition of human NCI-H460 cells; type: functional
# A549 = assay: Growth inhibition of human A549 cells; type: functional
# DMS-273 = assay: Growth inhibition of human DMS273 cells; type: functional
# DMS-114 = assay: Growth inhibition of human DMS114 cells; type: functional
# LOX IMVI [1] = assay: Growth inhibition of human LOXIMVI cells; type: functional
# OVCAR-3 = assay: Growth inhibition of human OVCAR3 cells; type: functional
# OVCAR-4 = assay: Growth inhibition of human OVCAR4 cells; type: functional
# OVCAR-5 = assay: Growth inhibition of human OVCAR5 cells; type: functional
# SK-OV-3 = assay: Growth inhibition of human SKOV3 cells; type: functional
# [2] = Growth inhibition of human RXF631L cells; type: functional; settings: RXF 631
# St-4 = assay: Growth inhibition of human St-4 cells; type: functional
# MKN-28 = assay: Growth inhibition of human MKN28 cells; type: functional
# MKN-45 = assay: Growth inhibition of human MKN45 cells; type: functional
# MKN-74 = assay: Growth inhibition of human MKN74 cells; type: functional
# LOX IMVI [3] = assay: Antitumor activity against human LOXIMVI cells xenografted in nude mouse assessed as decrease in tumor volume at 25 mg/kg, iv administered on day 1, 6 and 11 post tumor inoculation measured on day 21; type: functional; set-up: scale not given: the % may be the effect or the level left
# Saccharomyces cerevisiae [4] = assay: Growth restoration activity in cdc2-1 rad9-deficient Saccharomyces cerevisiae assessed as growth zone incubated at 37 degC for 6 hrs and 28 degC for 2 days; type: functional, organism-based
# DU-145 = assay: Growth inhibition of human DU145 cells; type: functional
# PC-3 = assay: Growth inhibition of human PC3 cells; type: functional
# Saccharomyces cerevisiae [5] = assay: Growth restoration activity in cdc2-1 rad9-deficient Saccharomyces cerevisiae assessed as growth zone incubated at 37 degC for 6 hrs and 28 degC for 2 days relative to mycophenolic acid; type: functional
# K562 = assay: Cytotoxicity against human K562 cells after 4 days by MTT assay; type: functional, cell-based; settings: K562, 96 h
# LNCaP = assay: Cytotoxicity against human LNCAP cells after 4 days by MTT assay; type: functional, cell-based; settings: 96 h
# Saccharomyces cerevisiae [6] = assay: Growth restoration activity in cdc2-1 rad9-deficient Saccharomyces cerevisiae assessed as growth zone at 2 ug/disc incubated at 37 degC for 6 hrs and 28 degC for 2 days; type: functional
# HL-60 [7] = assay: Cytotoxicity against human HL60 cells after 48 hrs by MTT assay; type: functional, cell-based; settings: HL-60, 48 h
# HL-60 [8] = assay: Induction of apoptosis in human HL60 cells assessed as condensed and fragmented nuclie at 10.6 uM after 18 hrs by Hoechst staining-based microscopic analysis relative to control; type: functional, cell-based
# HL-60 [9] = assay: Induction of apoptosis in human HL60 cells assessed as DNA fragmentation after 24 hrs by Hoechst staining-based microscopic analysis; type: functional, cell-based
# HL-60 [10] = assay: Induction of apoptosis in human HL60 cells assessed as DNA fragmentation at 1.25 to 40 uM by Hoechst staining-based microscopic analysis; type: functional, cell-based; settings: TDE = time-dependent effect
# HL-60 [11] = assay: Induction of apoptosis in human HL60 cells assessed as caspase 3/7 activation at 20 uM after 3 hrs by spectrophotometric analysis; type: functional, cell-based
# HL-60 [12] = assay: Induction of apoptosis in human HL60 cells assessed as caspase 8 activation at 20 uM after 3 hrs by spectrophotometric analysis; type: functional, cell-based
# HL-60 [13] = assay: Induction of apoptosis in human HL60 cells assessed as caspase 9 activation at 20 uM after 3 hrs by spectrophotometric analysis; type: functional, cell-based
# HL-60 [14] = assay: Induction of apoptosis in human HL60 cells assessed as caspase 3/7 activation after 1 to 6 hrs by spectrophotometric analysis; type: functional, cell-based
# HL-60 [15] = assay: Induction of apoptosis in human HL60 cells assessed as caspase 8 activation after 1 to 6 hrs by spectrophotometric analysis; type: functional, cell-based
# HL-60 [16] = assay: Induction of apoptosis in human HL60 cells assessed as DNA fragmentation after 24 hrs by Hoechst staining-based microscopic analysis preincubated with 5 uM JNK inhibitor SP600125; type: functional, cell-based
# HL-60 [17] = assay: Induction of apoptosis in human HL60 cells assessed as DNA fragmentation after 24 hrs by Hoechst staining-based microscopic analysis preincubated with 10 uM ERK inhibitor PD98059; type: functional, cell-based
# [18] = target: T1, MAP kinase p38 (Homo sapiens) (UniProt O15264+Q15759+Q16539+P53778); assay: Induction of p38 MAPK phosphorylation at T180/Y182 in human HL60 cells at 5 uM after 6 hrs by Western blot analysis; type: cell-based; settings: HL-60
# [19] = target: T1, MAP kinase p38 (Homo sapiens); assay: Induction of p38 MAPK phosphorylation at T180/Y182 in human HL60 cells at 10 uM after 3 hrs by Western blot analysis; type: cell-based; settings: HL-60
# HL-60 [20] = assay: Cytotoxicity against human HL60 cells after 48 hrs by MTT assay in absence of DFOM; type: functional, cell-based; settings: HL-60, 48 h
# HL-60 [21] = assay: Ratio of IC50 for human HL60 cells in presence of DFOM to IC50 for human HL60 cells in absence of DFOM; type: functional
# HL-60 [22] = assay: Cytotoxicity against human HL60 cells assessed as cell viability at 2 uM by MTT assay; type: functional; settings: read-out: Activity
# HL-60 [23] = assay: Induction of ROS generation in human HL60 cells at 10 uM after 3 hrs by spectrofluorometric analysis; type: functional, cell-based
# [24] = Induction of ROS generation at 10 uM after 3 hrs by spectrofluorometric analysis in presence of FeSO4; type: physicochemical
# HL-60 [25] = assay: Induction of apoptosis in human HL60 cells assessed as DNA fragmentation after 24 hrs by Hoechst staining-based microscopic analysis in presence of 100 uM free radical scavenger vitamin E; type: functional, cell-based
# HL-60 [26] = assay: Induction of apoptosis in human HL60 cells assessed as DNA fragmentation after 24 hrs by Hoechst staining-based microscopic analysis in presence of 10 mM hydrogen peroxide scavenger NAC; type: functional, cell-based
# [27] = Growth inhibition of human BSY1 cells; type: functional; settings: BSY-1
structure (smiles),measurement,setting,value
CC(C)=CCCC(C)C12C=CC(C)(CC1)OO2 (configuration not stated),GI50,MCF7,2090 nM
same,GI50,MDA-MB-231,11.7 µM
same,GI50,U-251,5.01 µM
same,GI50,SF-268,7.08 µM
same,GI50,SF-295,1660 nM
same,GI50,SF-539,2570 nM
same,GI50,SNB-75,1320 nM
same,GI50,HCC 2998,4.68 µM
same,GI50,KM12,1860 nM
same,GI50,HT-29,178 nM
same,GI50,HCT-116,3.72 µM
same,GI50,NCI-H23,1700 nM
same,GI50,NCI-H226,3.89 µM
same,GI50,NCI-H522,200 nM
same,GI50,NCI-H460,832 nM
same,GI50,A549,1550 nM
same,GI50,DMS-273,1150 nM
same,GI50,DMS-114,10.7 µM
same,GI50,LOX IMVI [1],214 nM
same,GI50,OVCAR-3,1740 nM
same,GI50,OVCAR-4,1820 nM
same,GI50,OVCAR-5,12 µM
same,GI50,SK-OV-3,7.94 µM
same,GI50,[2],2510 nM
same,GI50,St-4,5.37 µM
same,GI50,MKN-28,8.32 µM
same,GI50,MKN-45,6.31 µM
same,GI50,MKN-74,1170 nM
same,Activity,LOX IMVI [3],26.9%
same,Activity,Saccharomyces cerevisiae [4],Dose-dependent effect
same,GI50,DU-145,2630 nM
same,GI50,PC-3,1820 nM
same,fold change (FC),Saccharomyces cerevisiae [5],50
same,pIC50,K562,5.04
same,pIC50,LNCaP,4.63
same,Activity,Saccharomyces cerevisiae [6],24.1 mm
same,pIC50,HL-60 [7],5.47
same,Activity,HL-60 [8],Active
same,Activity,HL-60 [9],Dose-dependent effect
same,Activity,HL-60 [10],tde
same,Activity,HL-60 [11],Active
same,Activity,HL-60 [12],Active
same,Activity,HL-60 [13],Active
same,Activity,HL-60 [14],Dose-dependent effect
same,Activity,HL-60 [15],Dose-dependent effect
same,Activity,HL-60 [16],Active
same,Activity,HL-60 [17],Active
same,Activity,[18],Active
same,Activity,[19],Active
same,pIC50,HL-60 [20],5.43
same,Ratio IC50,HL-60 [21],10
same,viability at 2 µM,HL-60 [22],77.8%
same,Activity,HL-60 [23],inactive
same,Activity,[24],Active
same,Activity,HL-60 [25],inactive
same,Activity,HL-60 [26],Active
same,GI50,[27],2950 nM
